# Test results: paper PMC11129182, “Development of Inhibitors, Probes, and PROTAC Provides a Complete Toolbox to Study PARK7 in the Living Cell” (Journal of Medicinal Chemistry, 2024)
# Where two headings read alike, the source gives them in different places.
# Target: T1, PARK7 (Homo sapiens, UniProt Q99497)
# T1 sequence (Q99497 1-189): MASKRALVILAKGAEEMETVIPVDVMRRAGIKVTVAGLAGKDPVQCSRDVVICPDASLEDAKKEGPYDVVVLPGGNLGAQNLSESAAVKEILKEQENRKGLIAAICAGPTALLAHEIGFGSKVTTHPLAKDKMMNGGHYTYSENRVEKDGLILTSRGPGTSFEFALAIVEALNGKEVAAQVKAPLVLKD
# Assay: High-throughput screen of the crude compound library, PARK7 fluorescence polarization (FP) assay with FP reagent JYQ-107
# Type: biochemical
# Details: 1.25 µM, crude compound library, read-out: HTS FP assay %Inhibition (1.25 µM)
inhibition at 1.25 µM,inhibition at 1.25 µM (FP reagent JYQ-107),SMILES
64.6%,–,N#CN1CC[C@@H](C(=O)Nc2nc3c(s2)CN(C(=O)c2cccc(N4CCOCC4)n2)CC3)C1 [compound 277]
80.6%,–,N#CN1CC[C@@H](C(=O)Nc2nc3c(s2)CN(C(=O)c2cccc(Cn4cncn4)c2)CC3)C1 [compound 278]
81.9%,–,N#CN1CC[C@@H](C(=O)Nc2nc3c(s2)CN(C(=O)c2ccc(Cn4ccnn4)o2)CC3)C1 [compound 280]
62.3%,–,Cc1onc(C(=O)N2CCc3nc(NC(=O)[C@@H]4CCN(C#N)C4)sc3C2)c1CN1CCOCC1 [compound 281]
72.8%,–,N#CN1CC[C@@H](C(=O)Nc2nc3c(s2)CN(C(=O)C2CCN(S(=O)(=O)N4CCCCC4)CC2)CC3)C1 [compound 282]
65.2%,–,CC1(C(=O)N2CCc3nc(NC(=O)[C@@H]4CCN(C#N)C4)sc3C2)CCCCN1C(=O)OCc1ccccc1 (stereo partly drawn) [compound 283]
75.9%,–,N#CN1CC[C@@H](C(=O)Nc2nc3c(s2)CN(C(=O)c2sccc2S(=O)(=O)NC2CCCCCC2)CC3)C1 [compound 284]
81.3%,–,CCn1nccc1-c1cc(C(=O)N2CCc3nc(NC(=O)[C@@H]4CCN(C#N)C4)sc3C2)no1 [compound 285]
81.9%,–,N#CN1CC[C@@H](C(=O)Nc2nc3c(s2)CN(C(=O)c2cccc(C(=O)N4CCCC4)n2)CC3)C1 [compound 286]
64.1%,–,N#CN1CC[C@@H](C(=O)Nc2nc3c(s2)CN(C(=O)[C@@H]2CCCO[C@H]2c2ccccc2)CC3)C1 [compound 287]
78.6%,–,N#CN1CC[C@@H](C(=O)Nc2nc3c(s2)CN(C(=O)C2CCCN(S(=O)(=O)c4cccs4)C2)CC3)C1 (stereo partly drawn) [compound 288]
81.4%,–,N#CN1CC[C@@H](C(=O)Nc2nc3c(s2)CN(C(=O)c2ccc(Cn4cc(Cl)c(C(F)(F)F)n4)o2)CC3)C1 [compound 289]
67.7%,–,COc1ccc(C(=O)N2CCc3nc(NC(=O)[C@@H]4CCN(C#N)C4)sc3C2)cc1S(=O)(=O)N(C)CCc1cccnc1 [compound 290]
79.8%,–,N#CN1CC[C@@H](C(=O)Nc2nc3c(s2)CN(C(=O)CC2CCN(c4ccc(C(F)(F)F)cn4)CC2)CC3)C1 [compound 291]
73.8%,–,N#CN1CC[C@@H](C(=O)Nc2nc3c(s2)CN(C(=O)c2cccnc2-n2cncn2)CC3)C1 [compound 292]
78.1%,–,CCc1ccc(C(=O)N2CCC(C(=O)N3CCc4nc(NC(=O)[C@@H]5CCN(C#N)C5)sc4C3)CC2)o1 [compound 294]
73.2%,–,Cc1nc(-c2ccsc2)ccc1C(=O)N1CCc2nc(NC(=O)[C@@H]3CCN(C#N)C3)sc2C1 [compound 296]
56.1%,–,CN(C)S(=O)(=O)c1ccc(N2CCCCC2)c(C(=O)N2CCc3nc(NC(=O)[C@@H]4CCN(C#N)C4)sc3C2)c1 [compound 297]
79.5%,–,N#CN1CC[C@@H](C(=O)Nc2nc3c(s2)CN(C(=O)c2cnc(Cc4ccc(F)cc4)s2)CC3)C1 [compound 298]
87.8%,–,Cc1cc(C)cc(N(CCC(=O)N2CCc3nc(NC(=O)[C@@H]4CCN(C#N)C4)sc3C2)S(=O)(=O)c2ccc(Cl)cc2)c1 [compound 299]
86.1%,–,N#CN1CC[C@@H](C(=O)Nc2nc3c(s2)CN(C(=O)c2csc(CCc4ccccc4)n2)CC3)C1 [compound 300]

inhibition at 1.25 µM,inhibition at 1.25 µM (FP reagent JYQ-107),SMILES
85.9%,–,N#CN1CC[C@@H](C(=O)Nc2nc3c(s2)CN(C(=O)c2ccc(-c4nnco4)cc2)CC3)C1 [compound 301]
66.3%,–,N#CN1CC[C@@H](C(=O)Nc2nc3c(s2)CN(C(=O)c2ccccc2Cn2cncn2)CC3)C1 [compound 302]
80.8%,–,N#CN1CC[C@@H](C(=O)Nc2nc3c(s2)CN(C(=O)Cc2cnn(Cc4ccccc4)c2)CC3)C1 [compound 303]
74.8%,–,CNS(=O)(=O)c1ccc(-c2ccc(Cl)c(Cl)c2)c(C(=O)N2CCc3nc(NC(=O)[C@@H]4CCN(C#N)C4)sc3C2)c1 [compound 305]
76%,–,N#CN1CC[C@@H](C(=O)Nc2nc3c(s2)CN(C(=O)Cc2csc(N4CCCC4=O)n2)CC3)C1 [compound 306]
84.8%,–,CC1CN(S(=O)(=O)c2ccc(C(=O)N3CCc4nc(NC(=O)[C@@H]5CCN(C#N)C5)sc4C3)cc2)CC(C)O1 (stereo partly drawn) [compound 307]
64.6%,–,Cc1ncsc1C(=O)N(C)c1ccccc1C(=O)N1CCc2nc(NC(=O)[C@@H]3CCN(C#N)C3)sc2C1 [compound 308]
80.2%,–,N#CN1CC[C@@H](C(=O)Nc2nc3c(s2)CN(C(=O)Cc2ccc(-n4cccc4)cc2)CC3)C1 [compound 309]
85.3%,–,N#CN1CC[C@@H](C(=O)Nc2nc3c(s2)CN(C(=O)c2sccc2-n2cccc2)CC3)C1 [compound 310]
85.7%,–,Cc1ccc(Oc2ccc(C(=O)N3CCc4nc(NC(=O)[C@@H]5CCN(C#N)C5)sc4C3)nc2)cc1 [compound 316]
76.2%,–,N#CN1CC[C@@H](C(=O)Nc2nc3c(s2)CN(C(=O)c2ccc(OCc4cccnc4)cc2)CC3)C1 [compound 317]
65.8%,–,CCn1cc([C@@H]2OCCC[C@H]2C(=O)N2CCc3nc(NC(=O)[C@@H]4CCN(C#N)C4)sc3C2)cn1 [compound 318]
75.9%,–,N#CN1CC[C@@H](C(=O)Nc2nc3c(s2)CN(C(=O)c2ccc(C#Cc4ccccc4)cc2)CC3)C1 [compound 319]
64.2%,–,N#CN1CC[C@@H](C(=O)Nc2nc3c(s2)CN(C(=O)C2CCN2C2CCCC2)CC3)C1 (stereo partly drawn) [compound 320]
81.4%,–,N#CN1CC[C@@H](C(=O)Nc2nc3c(s2)CN(C(=O)c2cc(S(=O)(=O)Nc4nccs4)ccc2F)CC3)C1 [compound 321]
67.1%,–,N#CN1CC[C@@H](C(=O)Nc2nc3c(s2)CN(C(=O)C2CCCN2C(=O)C2CC2)CC3)C1 (stereo partly drawn) [compound 322]
67.7%,–,N#CN1CC[C@@H](C(=O)Nc2nc3c(s2)CN(C(=O)C(OC2CCOCC2)c2ccccc2)CC3)C1 (stereo partly drawn) [compound 323]
64.4%,–,N#CN1CC[C@@H](C(=O)Nc2nc3c(s2)CN(C(=O)CCn2ccc(C(=O)N4CCCC4)n2)CC3)C1 [compound 324]
86.9%,–,N#CN1CC[C@@H](C(=O)Nc2nc3c(s2)CN(C(=O)c2ccccc2OCc2cccs2)CC3)C1 [compound 325]
69.7%,–,N#CN1CC[C@@H](C(=O)Nc2nc3c(s2)CN(C(=O)c2c[nH]nc2-c2ccncc2)CC3)C1 [compound 326]
70%,–,COc1ccccc1N1CC(C(=O)N2CCc3nc(NC(=O)[C@@H]4CCN(C#N)C4)sc3C2)CCC1=O (stereo partly drawn) [compound 327]

inhibition at 1.25 µM,inhibition at 1.25 µM (FP reagent JYQ-107),SMILES
79.7%,–,Cn1nccc1[C@@H]1C[C@H]1C(=O)N1CCc2nc(NC(=O)[C@@H]3CCN(C#N)C3)sc2C1 [compound 328]
71.1%,–,N#CN1CC[C@@H](C(=O)Nc2nc3c(s2)CN(C(=O)C2CCCN(c4ncccn4)C2)CC3)C1 (stereo partly drawn) [compound 329]
64.2%,–,N#CN1CC[C@@H](C(=O)Nc2nc3c(s2)CN(C(=O)c2ccc(-c4ccncc4)[nH]c2=O)CC3)C1 [compound 330]
57.9%,–,Cc1onc(C(=O)N2CCc3nc(NC(=O)[C@@H]4CCN(C#N)C4)sc3C2)c1CN1CCN(C)CC1 [compound 331]
73.2%,–,N#CN1CC[C@@H](C(=O)Nc2nc3c(s2)CN(C(=O)c2cccn2Cc2ccccn2)CC3)C1 [compound 332]
79.4%,–,N#CN1CC[C@@H](C(=O)Nc2nc3c(s2)CN(C(=O)c2cc(COc4ccc(F)cc4F)on2)CC3)C1 [compound 335]
68.4%,–,Cc1cc(C)n(-c2ccc(Cl)c(C(=O)N3CCc4nc(NC(=O)[C@@H]5CCN(C#N)C5)sc4C3)n2)n1 [compound 338]
82.7%,–,N#CN1CC[C@@H](C(=O)Nc2nc3c(s2)CN(C(=O)Cc2csc(NS(=O)(=O)c4ccccc4)n2)CC3)C1 [compound 339]
87%,–,N#CN1CC[C@@H](C(=O)Nc2nc3c(s2)CN(C(=O)Cc2coc(-c4cccs4)n2)CC3)C1 [compound 341]
85.1%,–,COc1ccc(S(=O)(=O)N(CCC(=O)N2CCc3nc(NC(=O)[C@@H]4CCN(C#N)C4)sc3C2)Cc2ccccc2)cc1 [compound 342]
74.3%,–,Cc1oc(-c2ccsc2)nc1CC(=O)N1CCc2nc(NC(=O)[C@@H]3CCN(C#N)C3)sc2C1 [compound 343]
72%,–,Cc1ccc(C=CS(=O)(=O)N2CCC(C(=O)N3CCc4nc(NC(=O)[C@@H]5CCN(C#N)C5)sc4C3)CC2)cc1 [compound 344]
–,61.9%,N#CN1CC[C@@H](C(=O)Nc2nc3c(s2)CN(C(=O)Cc2csc(-c4ccccc4)n2)CC3)C1 [compound 346]
–,87.5%,Cc1ccccc1-n1cc(C(=O)N2CCc3nc(NC(=O)[C@@H]4CCN(C#N)C4)sc3C2)cn1 [compound 347]
–,71.9%,N#CN1CC[C@@H](C(=O)Nc2nc3c(s2)CN(C(=O)c2cccnc2-n2cccn2)CC3)C1 [compound 348]
–,59.6%,CCn1nc(C(C)C)cc1C(=O)N1CCCCC1C(=O)N1CCc2nc(NC(=O)[C@@H]3CCN(C#N)C3)sc2C1 (stereo partly drawn) [compound 349]
–,84.3%,Cn1nc(C2CCC2)cc1C(=O)N1CCc2nc(NC(=O)[C@@H]3CCN(C#N)C3)sc2C1 [compound 350]
–,88.9%,N#CN1CC[C@@H](C(=O)Nc2nc3c(s2)CN(C(=O)c2cccc(Oc4nccs4)c2)CC3)C1 [compound 351]
–,72%,CNS(=O)(=O)c1ccc(-c2ccccc2OC(F)(F)F)c(C(=O)N2CCc3nc(NC(=O)[C@@H]4CCN(C#N)C4)sc3C2)c1 [compound 352]
–,73.2%,N#CN1CC[C@@H](C(=O)Nc2nc3c(s2)CN(C(=O)Cc2ccc(OCc4ccccn4)cc2)CC3)C1 [compound 353]
–,72.5%,N#CN1CC[C@@H](C(=O)Nc2nc3c(s2)CN(C(=O)c2cc(S(=O)(=O)Nc4cccc(F)c4)ccc2F)CC3)C1 [compound 354]
